In patent US20240108740A1, “THERAPEUTIC COMPOSITIONS INCLUDING SPN10 AND USES THEREOF” (Stealth BioTherapeutics Inc., priority 2022, published 2024):
Residues, ends and D or L forms follow the SMILES beside them.

What was measured:
[1] = tested on: isolated mouse liver mitochondria; assay: Example 19: H2O2 production by isolated mitochondria (luminol chemiluminescence); details: AUC over 20 min
Procedure: Livers will be harvested from mice, homogenized in ice-cold buffer, and centrifuged at 13800×g for 10 min. The pellet will be washed once, re-suspended in 0.3 mL of wash buffer, and placed on ice until use. H2O2 will be measured using luminol chemiluminescence as described previously (Li, et al., Biochim. Biophys. Acta 1428:1-12 (1999). 0.1 mg mitochondrial protein will be added to 0.5 mL potassium phosphate buffer (100 mM, pH 8.0) in the presence of vehicle, peptide conjugates, SPN10(s) alone or in combination with aromatic-cationic peptides, or aromatic-cationic peptides. […] luminol and 0.7 IU horseradish peroxidase will be added, and chemiluminescence will be monitored with a Chronolog Model 560 aggregometer (Havertown, PA) for 20 minutes at 37° C. The amount of H2O2 produced will be quantified as the area under the curve (AUC) over 20 min, and all data will be normalized to AUC produced by mitochondria alone.

[2] = tested on: Isolated mouse pancreatic islet cells; assay: Example 30: oxidative damage in pancreatic islet cells; format: cell-based; details: 25 μM t-BHP
Procedure: Isolated mouse pancreatic islet cells will be treated with 25 μM t-BHP alone or in the presence of peptide conjugates, aromatic-cationic peptides, or SPN10(s) with or without aromatic-cationic peptides. Mitochondrial membrane potential will be measured by TMRM (red) and reactive oxygen species will be measured by DCF (green) using confocal microscopy.

[3] = tested on: fatty (fa/fa) Zucker rats; assay: Example 36: insulin resistance in fatty Zucker rats; format: in vivo, rat; details: approximately 6 weeks
Procedure: Peptide conjugates (1.0-5.0 mg/kg body wt); aromatic-cationic peptides (an equivalent molar dose of aromatic-cationic peptide based on the concentration of the aromatic-cationic peptide administered in the peptide conjugate treatment group); SPN10(s) (an equivalent molar dose of SPN10 based on the concentration of SPN10 administered in the peptide conjugate treatment group); or SPN10(s) in combination with aromatic-cationic peptides (e.g., an equivalent molar dose of SPN10 based on the concentration of SPN10 administered in the peptide conjugate treatment group and an equivalent molar dose of aromatic-cationic peptide based on the concentration of aromatic-cationic peptide administered in the peptide conjugate treatment group) will be administered to the rats intraperitoneally (i.p.) or orally (drinking water or oral gavage).
Physiological parameters measured will include body weight, fasting glucose/insulin/free fatty acid, oral glucose tolerance (OGTT), in vitro muscle insulin sensitivity (in vitro incubation), biomarkers of insulin signaling (Akt-P, IRS-P), mitochondrial function studies on permeabilized fibers (respiration, H2O2 production), biomarkers of intracellular oxidative stress (lipid peroxidation, GSH/GSSG ratio, aconitase activity), and mitochondrial enzyme activity. Control animals will include wild-type and untreated fatty rats. […]

[4] = tested on: Isolated guinea pig hearts; assay: Example 28: lipid peroxidation in hearts subjected to ischemia and reperfusion; details: brief intervals of ischemia and reperfusion; compared to untreated controls
Source text: Isolated guinea pig hearts will be perfused in a retrograde manner in a Langendorff apparatus and subjected to various intervals of ischemia-reperfusion. Hearts will be fixed immediately, embedded in paraffin, and sectioned. Immunohistochemical analysis of 4-hydroxy-2-nonenol (HNE)-modified proteins will be carried out using an anti-HNE antibody.

SMILES: N=C(N)NCCC[C@H](NC(=O)[C@@H](N)Cc1c[nH]c2ccccc12)C(=O)N[C@@H](Cc1c[nH]c2ccccc12)C(=O)N[C@@H](CCCCN)C(N)=O [SPN10, H-L-Trp-L-Arg-L-Trp-L-Lys-NH2] (H-WRWK-NH2)
- amount of H2O2 production [1]: significantly reduced
- oxidative damage in isolated pancreatic islet cells [2]: protect against oxidative damage
- whole body and muscle insulin resistance (treatment) ([3]; Zucker rats (~12 weeks of age)): reduce the whole body and muscle insulin resistance
- development of whole body and muscle insulin resistance (prevention) ([3]; young Zucker rats (~3-4 weeks of age)): attenuate or prevent the development of whole body and muscle insulin resistance
- lipid peroxidation (HNE-modified proteins) [4]: prevent lipid peroxidation
